Assay results published in PubChem BioAssay (NCI).
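Compound exposure: 48 hours, 5 concentrations, 96-well plates. Abbreviation: GI50, concentration required for 50% inhibition of growth. Definition used: TGI = concentration required for complete inhibition of growth.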

Tests used:
Assay in all cases: NCI anticancer screen, dose series, 48 h
UACC-62 melanoma = test system: UACC-62 melanoma
SNB-19 CNS = test system: SNB-19 CNS
SF-295 CNS = test system: SF-295 CNS
RXF 393 renal = test system: RXF 393 renal
U251 CNS = test system: U251 CNS
SK-OV-3 ovarian = test system: SK-OV-3 ovarian
NCI-H522 lung = test system: NCI-H522 lung
HS 578T breast = test system: HS 578T breast
OVCAR-4 ovarian = test system: OVCAR-4 ovarian
HOP-62 NSCLC = test system: HOP-62 NSCLC
KM12 colon = test system: KM12 colon
CCRF-CEM leukemia = test system: CCRF-CEM leukemia
BT-549 breast = test system: BT-549 breast
SF-268 CNS = test system: SF-268 CNS
K-562 leukemia = test system: K-562 leukemia
COLO 205 colon = test system: COLO 205 colon
MCF7 breast = test system: MCF7 breast
HCC-2998 colon = test system: HCC-2998 colon
A549 NSCLC = test system: A549 NSCLC
HL-60(TB) leukemia = test system: HL-60(TB) leukemia
RPMI-8226 leukemia = test system: RPMI-8226 leukemia
SK-MEL-5 melanoma = test system: SK-MEL-5 melanoma
SK-MEL-28 melanoma = test system: SK-MEL-28 melanoma
M14 melanoma = test system: M14 melanoma
MOLT-4 leukemia = test system: MOLT-4 leukemia
SK-MEL-2 melanoma = test system: SK-MEL-2 melanoma
SNB-75 CNS = test system: SNB-75 CNS
786-0 renal = test system: 786-0 renal
MALME-3M melanoma = test system: MALME-3M melanoma
IGROV1 ovarian = test system: IGROV1 ovarian
NCI/ADR-RES ovarian = test system: NCI/ADR-RES ovarian
UO-31 renal = test system: UO-31 renal
LOX IMVI melanoma = test system: LOX IMVI melanoma
OVCAR-8 ovarian = test system: OVCAR-8 ovarian
CAKI-1 renal = test system: CAKI-1 renal
T-47D breast = test system: T-47D breast
HCT-15 colon = test system: HCT-15 colon
PC-3 prostate = test system: PC-3 prostate
A498 renal = test system: A498 renal
SW-620 colon = test system: SW-620 colon
TK-10 renal = test system: TK-10 renal
ACHN renal = test system: ACHN renal
NCI-H460 lung = test system: NCI-H460 lung
SF-539 CNS = test system: SF-539 CNS
DU-145 prostate = test system: DU-145 prostate
HOP-92 NSCLC = test system: HOP-92 NSCLC
EKVX NSCLC = test system: EKVX NSCLC
SN12C renal = test system: SN12C renal
OVCAR-5 ovarian = test system: OVCAR-5 ovarian
UACC-257 melanoma = test system: UACC-257 melanoma
MDA-MB-435 = test system: MDA-MB-435
OVCAR-3 ovarian = test system: OVCAR-3 ovarian
NCI-H226 lung = test system: NCI-H226 lung
SR leukemia = test system: SR leukemia
HT29 colon = test system: HT29 colon
HCT-116 colon = test system: HCT-116 colon
MDA-MB-231 breast = test system: MDA-MB-231 breast
NCI-H23 lung = test system: NCI-H23 lung

CN1CCN(Cc2ccc(NC(=O)c3cncc(C#Cc4cnc5ccc(OC6CCOCC6)nn45)c3)cc2C(F)(F)F)CC1
GI50 (UACC-62 melanoma): 127 nM | TGI (UACC-62 melanoma): 732 nM | GI50 (SNB-19 CNS): 221 nM | TGI (SNB-19 CNS): 1640 nM | GI50 (SF-295 CNS): 145 nM | TGI (SF-295 CNS): 1560 nM | GI50 (RXF 393 renal): 96.5 nM | TGI (RXF 393 renal): 288 nM | GI50 (U251 CNS): 142 nM | TGI (U251 CNS): 527 nM | GI50 (SK-OV-3 ovarian): 316 nM | TGI (SK-OV-3 ovarian): 1160 nM | GI50 (NCI-H522 lung): 88 nM | TGI (NCI-H522 lung): 182 nM | GI50 (HS 578T breast): 105 nM | TGI (HS 578T breast): 648 nM | GI50 (OVCAR-4 ovarian): 151 nM | TGI (OVCAR-4 ovarian): 1190 nM | GI50 (HOP-62 NSCLC): 165 nM | TGI (HOP-62 NSCLC): 953 nM | GI50 (KM12 colon): 5 nM | TGI (KM12 colon): 305 nM | GI50 (CCRF-CEM leukemia): 11.3 nM | TGI (CCRF-CEM leukemia): 3130 nM | GI50 (BT-549 breast): 537 nM | TGI (BT-549 breast): 1510 nM | GI50 (SF-268 CNS): 142 nM | TGI (SF-268 CNS): 687 nM | GI50 (K-562 leukemia): 5 nM | TGI (K-562 leukemia): 702 nM | GI50 (COLO 205 colon): 95.3 nM | TGI (COLO 205 colon): 302 nM | GI50 (MCF7 breast): 37.6 nM | TGI (MCF7 breast): 415 nM | GI50 (HCC-2998 colon): 149 nM | TGI (HCC-2998 colon): 457 nM | GI50 (A549 NSCLC): 90.9 nM | TGI (A549 NSCLC): 562 nM | GI50 (HL-60(TB) leukemia): 57.5 nM | TGI (HL-60(TB) leukemia): 285 nM | GI50 (RPMI-8226 leukemia): 183 nM | TGI (RPMI-8226 leukemia): 973 nM | GI50 (SK-MEL-5 melanoma): 596 nM | TGI (SK-MEL-5 melanoma): 1350 nM | GI50 (SK-MEL-28 melanoma): 256 nM | TGI (SK-MEL-28 melanoma): 1050 nM | GI50 (M14 melanoma): 49.3 nM | TGI (M14 melanoma): 154 nM | GI50 (MOLT-4 leukemia): 36.4 nM | TGI (MOLT-4 leukemia): 638 nM | GI50 (SK-MEL-2 melanoma): 90.6 nM | TGI (SK-MEL-2 melanoma): 199 nM | GI50 (SNB-75 CNS): 17.8 nM | TGI (SNB-75 CNS): 209 nM | GI50 (786-0 renal): 244 nM | TGI (786-0 renal): 890 nM | GI50 (MALME-3M melanoma): 69.4 nM | TGI (MALME-3M melanoma): 382 nM | GI50 (IGROV1 ovarian): 56.2 nM | TGI (IGROV1 ovarian): 503 nM | GI50 (NCI/ADR-RES ovarian): 348 nM | TGI (NCI/ADR-RES ovarian): 1770 nM | GI50 (UO-31 renal): 158 nM | TGI (UO-31 renal): 729 nM | GI50 (LOX IMVI melanoma): 71.9 nM | TGI (LOX IMVI melanoma): 420 nM | GI50 (OVCAR-8 ovarian): 132 nM | TGI (OVCAR-8 ovarian): 604 nM | GI50 (CAKI-1 renal): 43.7 nM | TGI (CAKI-1 renal): 252 nM | GI50 (T-47D breast): 543 nM | TGI (T-47D breast): 2420 nM | GI50 (HCT-15 colon): 95.3 nM | TGI (HCT-15 colon): 324 nM | GI50 (PC-3 prostate): 144 nM | TGI (PC-3 prostate): 1120 nM | GI50 (A498 renal): 246 nM | TGI (A498 renal): 797 nM | GI50 (SW-620 colon): 61.3 nM | TGI (SW-620 colon): 332 nM | GI50 (TK-10 renal): 90.7 nM | TGI (TK-10 renal): 227 nM | GI50 (ACHN renal): 105 nM | TGI (ACHN renal): 1750 nM | GI50 (NCI-H460 lung): 67.4 nM | TGI (NCI-H460 lung): 618 nM | GI50 (SF-539 CNS): 39.3 nM | TGI (SF-539 CNS): 526 nM | GI50 (DU-145 prostate): 141 nM | TGI (DU-145 prostate): 769 nM | GI50 (HOP-92 NSCLC): 9.44 nM | TGI (HOP-92 NSCLC): 65.7 nM | GI50 (EKVX NSCLC): 173 nM | TGI (EKVX NSCLC): 805 nM | GI50 (SN12C renal): 52.9 nM | TGI (SN12C renal): 408 nM | GI50 (OVCAR-5 ovarian): 257 nM | TGI (OVCAR-5 ovarian): 1580 nM | GI50 (UACC-257 melanoma): 215 nM | TGI (UACC-257 melanoma): 780 nM | GI50 (MDA-MB-435): 61.7 nM | TGI (MDA-MB-435): 603 nM | GI50 (OVCAR-3 ovarian): 123 nM | TGI (OVCAR-3 ovarian): 998 nM | GI50 (NCI-H226 lung): 24.1 nM | TGI (NCI-H226 lung): 762 nM | GI50 (SR leukemia): 37.8 nM | TGI (SR leukemia): 332 nM | GI50 (HT29 colon): 73.2 nM | TGI (HT29 colon): 317 nM | GI50 (HCT-116 colon): 37.5 nM | TGI (HCT-116 colon): 228 nM | GI50 (MDA-MB-231 breast): 38 nM | TGI (MDA-MB-231 breast): 176 nM | GI50 (NCI-H23 lung): 120 nM | TGI (NCI-H23 lung): 474 nM
